Laboratory results published in US20180243274A1, “ANTIBACTERIAL COMPOSITIONS” (WOCKHARDT LIMITED, priority 2013, published 2018).

Key:
[1] = tested on: E. coli NCTC 13353 producing CTX-M15 and OXA 1 beta-lactamase enzymes; assay: Time kill study against E. coli NCTC 13353; format: cell-based; conditions: for effect on bacterial counts when used alone: throughout the duration of the study
Procedure: (§1) The synergistic killing effect of the combinations according to invention was studied by performing time kill studies. In a typical time kill study, the freshly grown cultures were diluted to the required cell density (initial starting inoculum) in Cation adjusted Muller Hinton broth medium (BD, USA). The antibacterial agents (either alone or in combination) at the required concentrations were added into the culture-containing medium. The samples were incubated under shaking condition (120 rpm) at 37° C. Enumeration of viable bacterial count was done every 2 hour by diluting in normal saline and plating on to the Tryptic Soya Agar plates (BD, USA). The plates were incubated for 24 hours to arrive at the viable bacterial count. The results are expressed in terms of Log 10 CFU per ml. In general, the decrease of 1 Log 10 CFU/ml corresponds to 90% killing of bacteria. Similarly, 2 Log 10 CFU/ml reductions indicates to 99% killing of bacteria and 3 Log 10 CFU/ml reductions is equal to 99.9% killing of bacteria.
E. coli NCTC 13353 produces resistant CTX-M15 and OXA 1 beta-lactamase enzymes.

[2] = tested on: clinical isolate of E. coli M50 producing CMY 6, DHA—1/2 beta-lactamase enzymes; assay: Time kill study against clinical isolate E. coli M50; format: cell-based; conditions: for effect on bacterial counts when used alone: throughout the duration of the study
Procedure: as §1
The results on antibacterial activity of the antibacterial agent selected from cefixime, cefpodoxime, ceftibuten or cefuroxime alone and in combination with a compound of Formula (I) against E. coli M50 are given in Table 2. E. coli M50 produces resistant CMY 6, DHA-½ beta-lactamase enzymes.

Row | Compound | Bacterial count (Log10 CFU/ml) 0 hours ([1]; agent alone 1 mcg/ml) | Bacterial count (Log10 CFU/ml) 2 hours ([1]; agent alone 1 mcg/ml) | Bacterial count (Log10 CFU/ml) 4 hours ([1]; agent alone 1 mcg/ml) | Bacterial count (Log10 CFU/ml) 6 hours ([1]; agent alone 1 mcg/ml) | Bacterial count (Log10 CFU/ml) 24 hours ([1]; agent alone 1 mcg/ml) | Bacterial count (Log10 CFU/ml) 0 hour ([2]; agent alone 4 mcg/ml) | Bacterial count (Log10 CFU/ml) 2 hours ([2]; agent alone 4 mcg/ml) | Bacterial count (Log10 CFU/ml) 4 hours ([2]; agent alone 4 mcg/ml) | Bacterial count (Log10 CFU/ml) 6 hours ([2]; agent alone 4 mcg/ml) | Bacterial count (Log10 CFU/ml) 8 hours ([2]; agent alone 4 mcg/ml) | effect on bacterial counts when used alone [1] | effect on bacterial counts when used alone [2] | other results
1 | C=CC1=C(C(=O)O)N2C(=O)[C@@H](NC(=O)/C(=N\OCC(=O)O)c3csc(N)n3)[C@H]2SC1 [Cefixime, cefixime] | 7.23 Log10 CFU/ml | 8.65 Log10 CFU/ml | 8.90 Log10 CFU/ml | 8.84 Log10 CFU/ml | 9.06 Log10 CFU/ml | 7.77 Log10 CFU/ml | 8.84 Log10 CFU/ml | 9.20 Log10 CFU/ml | 8.90 Log10 CFU/ml | 9.30 Log10 CFU/ml | – | – | –
2 | COCC1=C(C(=O)O)N2C(=O)[C@@H](NC(=O)/C(=N\OC)c3csc(N)n3)[C@H]2SC1 [Cefpodoxime, cefpodoxime] | 7.23 Log10 CFU/ml | 8.17 Log10 CFU/ml | 8.74 Log10 CFU/ml | 8.90 Log10 CFU/ml | 9.06 Log10 CFU/ml | 7.77 Log10 CFU/ml | 8.60 Log10 CFU/ml | 9.04 Log10 CFU/ml | 9.16 Log10 CFU/ml | 9.19 Log10 CFU/ml | – | – | –
3 | Nc1nc(/C(=C/CC(=O)O)C(=O)N[C@@H]2C(=O)N3C(C(=O)O)=CCS[C@H]23)cs1 [Ceftibuten, ceftibuten] | 7.23 Log10 CFU/ml | 8.10 Log10 CFU/ml | 8.7 Log10 CFU/ml | 9.04 Log10 CFU/ml | 9.51 Log10 CFU/ml | 7.77 Log10 CFU/ml | 8.48 Log10 CFU/ml | 8.70 Log10 CFU/ml | 9.08 Log10 CFU/ml | 9.20 Log10 CFU/ml | did not reduce the bacterial counts | did not reduce the bacterial counts | –
4 | CO/N=C(\C(=O)N[C@@H]1C(=O)N2C(C(=O)O)=C(COC(N)=O)CS[C@H]12)c1ccco1 [Cefuroxime, cefuroxime] | 7.23 Log10 CFU/ml | 8.25 Log10 CFU/ml | 8.80 Log10 CFU/ml | 9.38 Log10 CFU/ml | 9.48 Log10 CFU/ml | 7.77 Log10 CFU/ml | 8.58 Log10 CFU/ml | 9.02 Log10 CFU/ml | 9.2 Log10 CFU/ml | 9.50 Log10 CFU/ml | did not reduce the bacterial counts | did not reduce the bacterial counts | –
5 | O=C(NOC[C@@H]1CCCN1)[C@@H]1CC[C@@H]2CN1C(=O)N2OS(=O)(=O)O [Compound of Formula (I), (2S, 5R)-7-oxo-N-[(2S)-pyrrolidin-2-ylmethoxy]-6-(sulfooxy)-1,6-diazabicyclo[3.2.1]octane-2-carboxamide] | – | – | – | – | – | 7.77 Log10 CFU/ml | 8.02 Log10 CFU/ml | 8.09 Log10 CFU/ml | 8.07 Log10 CFU/ml | 8.08 Log10 CFU/ml | did not reduce the bacterial counts | did not reduce the bacterial counts | Bacterial count (Log10 CFU/ml) 0 hours ([1]; alone 4 mcg/ml): 7.23 Log10 CFU/ml; Bacterial count (Log10 CFU/ml) 2 hours ([1]; alone 4 mcg/ml): 7.17 Log10 CFU/ml; Bacterial count (Log10 CFU/ml) 4 hours ([1]; alone 4 mcg/ml): 7.14 Log10 CFU/ml; Bacterial count (Log10 CFU/ml) 6 hours ([1]; alone 4 mcg/ml): 7.11 Log10 CFU/ml; Bacterial count (Log10 CFU/ml) 24 hours ([1]; alone 4 mcg/ml): 7.87 Log10 CFU/ml
6 | C[C@@H](O)[C@H]1C(=O)N2C(C(=O)O)=C(SCCN=CN)C[C@H]12 [Imipenem] | 7.23 Log10 CFU/ml | 4.95 Log10 CFU/ml | 4.47 Log10 CFU/ml | 4.39 Log10 CFU/ml | 7.34 Log10 CFU/ml | – | – | – | – | – | – | – | Bacterial count (Log10 CFU/ml) 0 hour ([2]; alone 1 mcg/ml): 7.77 Log10 CFU/ml; Bacterial count (Log10 CFU/ml) 2 hours ([2]; alone 1 mcg/ml): 5.60 Log10 CFU/ml; Bacterial count (Log10 CFU/ml) 4 hours ([2]; alone 1 mcg/ml): 7.47 Log10 CFU/ml; Bacterial count (Log10 CFU/ml) 6 hours ([2]; alone 1 mcg/ml): 8.07 Log10 CFU/ml; Bacterial count (Log10 CFU/ml) 8 hours ([2]; alone 1 mcg/ml): 8.47 Log10 CFU/ml
